Results taken from PubChem BioAssay AID1626 (SRMLSC, 2009).

Test system: M. tuberculosis H37Rv growth inhibition
Assay: M. tuberculosis H37Rv growth inhibitors, H37Rv strain (AID 1626)
Conditions: for IC90: measured here: IC90 against H37Rv; for CC50: measured here: Vero cell cytotoxicity

| Compound | IC50 [µM] | IC90 [µM] | CC50 [µM] |
| --- | --- | --- | --- |
| C/C=C/C(=O)OCC(=O)Nc1ccc(OC)c(Cl)c1 | 20 | > 100 |  |
| O=C1c2cccc3c([N+](=O)[O-])ccc(c23)C(=O)N1CC1CCCO1 (stereo not given) | 3.76 | 12.5 | 18.1 |
| O=c1[nH]c2ccccc2n1CCCN1CCN(C(c2ccccc2)c2ccccc2)CC1 | 17.1 | 25.3 | > 40 |
| N=c1n(CCN2CCCCC2)c2ccccc2n1CC(=O)c1ccc(Cl)c(Cl)c1 | 8.28 | 10.5 | 19.8 |
| CSc1nsc(SCC(=O)Nc2ccc(OC(C)=O)cc2)n1 | 2.56 | 3.79 |  |
| Cc1cc(C)cc(N=c2c([N+](=O)[O-])nn(-c3cccc(Cl)c3)n2O)c1 | 4.89 | 9.8 | > 40 |
| O=C(Nc1ccc(-c2csc(Nc3cccc(C(F)(F)F)c3)n2)cc1)c1cc([N+](=O)[O-])cc(C(F)(F)F)c1 | 7.37 | > 100 | 20.2 |
| COc1ccc(N=C2NN=C(c3c(C)[nH]c4ccccc34)CS2)cc1 | 39 | > 100 | 29.6 |
| Cc1cc(C)n(-c2nc(NC(C)C)nc(NC(C)C)n2)n1 | 0.961 | 3.94 | > 40 |
| CCOCC(=O)Nc1ccc(Br)c(C)c1 | 9.8 | > 100 |  |
| CCOc1ccc(N=Cc2c(O)n(-c3ccc(C)c(C)c3)c(=O)[nH]c2=O)cc1 | < 0.195 | > 100 |  |
| COC(=O)CSc1nc2ccc(NC(=O)c3ccccc3C(=O)N3CCOCC3)cc2s1 | 8.89 | > 100 |  |
| O=[N+]([O-])c1ccc(Sc2cccc3cccnc23)c([N+](=O)[O-])c1 | 32.9 | > 100 | 4.55 |
| Cc1cnc(C(=O)Nc2nnc(SCc3c(Cl)cccc3Cl)s2)cn1 | 8.19 | > 100 | 35.5 |
| CCCCCCCn1c(NC(=O)CC)nc2ccccc21 | < 0.195 | 1.58 | 29.2 |
| CCOC(=O)c1ccc(NC(=O)CN2C(=O)C(=O)N(CC(C)C)C2=O)cc1 | < 0.195 | > 100 |  |
| O=C(OCC(=O)N1CCN(C(=O)c2ccco2)CC1)c1sc2ccccc2c1Cl |  | > 100 |  |
| COc1cccc2sc(N(CCCN(C)C)C(=O)C(c3ccccc3)c3ccccc3)nc12 | 13.5 | 18.4 | 21.8 |
| CNC(=O)C(=O)Nc1nc(C23CC4CC(CC(C4)C2)C3)cs1 | 62.7 | > 100 |  |
| COC(=O)CSc1nc2ccccc2nc1SCC(=O)OC | 4.87 | 12.5 |  |
| c1ccc(CC2CCN(c3nc4ccccc4n4cnnc34)CC2)cc1 | 1.77 | 3.44 | > 40 |

| Compound | IC50 [µM] | IC90 [µM] | CC50 [µM] |
| --- | --- | --- | --- |
| Cc1ccc(Nc2nc(N3CCN(C)CC3)nc(N)c2[N+](=O)[O-])cc1C | 9.67 | 14.5 |  |
| COc1ccc(C(CCN2CCCCC2)c2c(OC)cc(OC)c3c(-c4ccccc4)cc(=O)oc23)cc1 (stereo not given) | 7.16 | 10.9 | 16 |
| COc1cc(OC)cc(C(=O)Nc2nc3ccccc3[nH]2)c1 | 15.9 | > 100 | > 40 |
| O=C(Nc1ccc(N2CCN(C(=O)c3ccccc3)CC2)cc1)c1ccc([N+](=O)[O-])o1 | < 0.195 | < 0.195 | 1.63 |
| Nc1nc(-c2ccc(F)cc2)cs1 | 23.8 | > 100 |  |
| O=C(Nc1nnc(-c2ccccc2)o1)c1cc(Cl)sc1Cl | 2.4 | > 100 | > 40 |
| O=C(CC(Nc1ccc(F)cc1)C(=O)OCC(=O)c1cccs1)c1ccccc1 (stereo not given) | 67.1 | > 100 |  |
| CCOC(=O)CSc1nnc(-c2ccc(Cl)cc2Cl)o1 | < 0.391 | 9.47 |  |
| C(=C\c1nc(N2CCCCCC2)c2ccccc2n1)/c1ccccc1 | 8.43 | 11.1 | 37.5 |
| CCOC(=O)c1c(-c2ccccc2)csc1NC(=O)c1cc2ccccc2oc1=O | < 0.195 | 0.623 | > 40 |
| Cc1ccc(C(O)(c2ccccc2)c2ccccc2C(C)N(C)C)c(C)c1 (stereo not given) | 11.7 | 19.9 | 39 |
| Cc1ccc(NC(=O)/C=C/c2ccc([N+](=O)[O-])s2)c(C)c1 | 1.79 | 4.42 | 19.5 |
| NC1=NC[C@H](Cc2ccc(O)cc2)N1CCC12CC3CC(CC(C3)C1)C2 | 5.85 | 9.05 |  |
| COc1ccccc1Sc1nc(-c2ccccn2)ncc1OC | 1.04 | > 100 | 7.61 |
| O=c1oc2ccccc2nc1/C=C(\O)c1ccc(Br)cc1 | 3.56 | > 100 |  |
| COc1ccccc1/C=C/CN1CCCC(CO)(Cc2cccc(Cl)c2)C1 (stereo not given) | 10.9 | 16.4 | > 40 |
| Cc1ccc(C(=O)Oc2cccc(NC(=O)c3ccccc3)c2)cc1C | 7.76 | 12.9 |  |
| CCCOC(=O)CSc1nnc(-c2cc(OC)c(OC)c(OC)c2)o1 | 0.728 | 1.83 |  |
| CCn1c(CNc2ccc(F)cc2)nnc1SCC(=O)OC1CCCCC1 | 12 | 13.7 |  |
| Cc1cccc(Nc2nnc(SCC(=O)Nc3cccnc3Cl)s2)c1 | 2.34 | 8.03 |  |
| CCc1ccc(CCC(=O)Nc2ccc(OC)cc2)o1 | 35.9 | > 100 |  |

| Compound | IC50 [µM] | IC90 [µM] | CC50 [µM] |
| --- | --- | --- | --- |
| Cc1nc2ccccn2c1C(=O)NCc1ccc2c(c1)OCO2 | 1.62 | 7.83 |  |
| O=c1c(O)c(-c2cccs2)oc2ccc(Cl)cc12 | 9.53 | > 100 | > 40 |
| C=CCNc1cc(C(F)(F)F)nc(-c2ccccn2)n1 | 4.87 | 16.3 |  |
| Cc1cccc(-n2c(/C=C/c3ccc([N+](=O)[O-])o3)nc3ccccc3c2=O)c1 |  | > 100 | 28.7 |
| Cc1ccc(NC(=O)NCC2CCN(Cc3cccc(Cl)c3)CC2)cc1Cl | 11.6 | 31.2 | 29.4 |
| CCN(CC)CCCNc1nc2cc(OC)c(OC)cc2c2nc(-c3ccccc3)nn12 | 9.3 | 13.8 | > 40 |
| CCOC(=O)CSc1ncc(-c2cccc(Cl)c2)cn1 | 1.35 | 3.11 |  |
| CCc1ccc(-c2cc(C(F)(F)F)n3nc(C(=O)Nc4c(C)nn(Cc5ccc(F)cc5)c4C)cc3n2)s1 | 16.2 | > 100 | > 40 |
| CC(C)c1ccc(NC(=O)NC2CCCCC2)cc1 | 6.27 | > 100 |  |
| COc1ccc(NC(=O)COC(=O)CCCOc2ccc(Cl)cc2Cl)cc1Cl | 80.6 | > 100 |  |
| O=C(NC1CCCCCCC1)c1ccccc1-c1ccccc1 | 57.1 | > 100 |  |
| O=C(/C=C/c1ccccc1)c1c(O)n(CCc2ccccc2)c(=O)[nH]c1=O | 9.75 | 11.6 | 37.1 |
| Clc1ccc(COC(Cn2ccnc2)c2ccc(Cl)cc2Cl)cc1 (stereo not given) | 3.74 | 5.68 | 33.1 |
| COc1ccc(-c2csc(NC(C)c3nc4cc(Cl)c(N5CCCCC5)cc4n3CCOCCO)n2)cc1 (stereo not given) | 7.74 | > 100 | > 40 |
| COc1cccc(-c2nc(-c3ccccc3)nc(N3CCN(C)CC3)c2C#N)c1 | 8.8 | 12.4 | 26.7 |
| CCCc1nc2sc3ccccc3c(=O)c2c(=O)n1Cc1ccc(OC)cc1 |  | > 100 | > 40 |
| CC(=O)c1sc(NC(=O)c2cc(-c3ccccc3)nn2-c2ccccc2)nc1C | 27.7 | > 100 | > 40 |
| COC(=O)c1ccc(NC(=O)CSC2=NCCN2)cc1 |  | > 100 |  |
| O=C(Oc1ccc(-c2cnc3ccccc3n2)cc1)c1ccc(Cl)c([N+](=O)[O-])c1 | 5.25 | 23.4 |  |
| Cc1ccc(-n2c(C)cc(C3N=C(N)Nc4nc5ccccc5n43)c2C)c(C)c1 (stereo not given) | 8.26 | 10.8 | > 40 |
| COc1ccc2c(c1)CCc1cnc(N)nc1-2 | 69.9 | > 100 | > 40 |

| Compound | IC50 [µM] | IC90 [µM] | CC50 [µM] |
| --- | --- | --- | --- |
| N#C/C(=C\c1c[nH]c2ccccc12)C(=O)Nc1ncc(Cc2ccc(Cl)cc2Cl)s1 | 11.7 | 13.5 | > 40 |
| CCOC(=O)c1ccc(NC(=O)CCc2nc(-c3ccc(Cl)cc3)no2)cc1 | 0.898 | 18.4 |  |
| Cc1ccccc1OCC(=O)Nc1nc2ccccc2[nH]1 | 4.82 | 16.2 |  |
| COc1cccc(-c2nnc(SCC(=O)Nc3cc(C)on3)o2)c1 | 5.8 | 8.52 | > 40 |
| CC(C)c1ccc2nc(N)sc2c1 | 43.3 | > 100 | > 40 |
| O=C(Oc1ccccc1Cl)c1ccc(N2CCOCC2)c([N+](=O)[O-])c1 | 4.09 | 11.1 |  |
| Cc1ccc(-n2nnnc2SC(C)C(=O)Nc2ccc(Cl)cn2)cc1 (stereo not given) | 16.5 | 29.1 | 26.7 |
| O=C(OC(c1ccccc1)c1nccc2ccccc12)c1cc([N+](=O)[O-])cc([N+](=O)[O-])c1 (stereo not given) | 2.14 | 4.48 | > 40 |
| O=C(/C=C/c1ccc(OCCCF)cc1)Nc1ccnc(-c2ccncc2)n1 | 84.1 | > 100 | > 40 |
| O=C(CNC(=O)/C(=C\c1ccc(Br)cc1)NC(=O)c1ccccc1)OCc1ccccc1 | 1.92 | 3.33 | 13 |
| COc1cccc(-c2nnc(NC(=O)c3ccccc3Br)o2)c1 | 3.79 | 9.35 | > 40 |
| Nc1ccccc1SCC(=O)Nc1nc(-c2ccccc2)cs1 |  | > 100 | > 40 |
| O=C(Oc1ccc2ccc(O)cc2c1)C1CCCCC1 |  | > 100 |  |
| CCOC(=O)COc1ccc(S(=O)(=O)NCCC2=CCCCC2)cc1 | 12.1 | 20.8 |  |
| O=C(Nc1ccccc1Cl)Oc1ccc(-c2ccccc2)cc1 | 59.5 | > 100 | > 40 |
| CC(=O)c1c(C)n(C)c2ccc(O)cc12 |  | > 100 |  |
| O=C(CCSc1ccc(Cl)cc1)c1cccs1 |  | > 100 |  |
| CC(=O)c1ccccc1OCC(O)CN1CCN(C(c2ccccc2)c2ccccc2)CC1 (stereo not given) | 7.75 | 32.6 | 33.1 |
